Measurements reported in US20250066323A1, “INHIBITORS OF HUMAN RESPIRATORY SYNCYTIAL VIRUS AND METAPNEUMOVIRUS” (priority 2023, published 2025).
pEC50: −log10 of the molar value.

Legend:
[1] = system: RSV-A2-GFP; assay: RSV-A2-GFP viral replication assay; format: cell-based, Human Respiratory Syncytial Virus; settings: human respiratory syncytial virus, Calu-1, 96 h, read-out: RSV EC50, Calu-1 cells, RSV-A2-GFP MOI=1.2, 96 hrs, GFP-expressing cells counted
How it was run: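 Calu-1 cells in DMEM/2% FBS infected with RSV-A2 expressing GFP between P and M genes (24,000 pfu/ml, MOI=1.2), 10-point 3-fold dilutions (typical final 403 nM-0.02 nM or 40.3 nM-0.002 nM). After 96 h at 37°C, GFP-positive cells imaged; same-well CellTiter-Glo for cytotoxicity. IC50/CC50 by 4-parameter logistic fit.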

[2] = system: hMPV-GFP; assay: hMPV-GFP viral replication assay; format: cell-based, human metapneumovirus; settings: human metapneumovirus, Vero, 48 h, read-out: hMPV EC50
Procedure: GFP expressing rgHMPV #3 p3 was generated in Dr. Buchholz's lab (Biacchesi S. et al., J Virol. 2007 June; 81(11): 6057-6067.) and propagated in VERO cells (kidney tissue derived from a normal, adult African green monkey. ATCC Cat #CCL-81) with infection Multiplicity of Infection (MOI) of 0.1. Virus was harvested 4 days after infection by collecting all culture material and freeze-thaw the viral culture in liquid nitrogen twice. To generating virus working stocks, thaw frozen samples in 37° C. water bath then centrifuge at 218 g for 15 min at 4° C. Add 1/10 of 10×SPG (Biological Industries 06-3061-01-5A), mix, aliquot supernatant, and quick-freeze in liquid nitrogen then transfer to −80° C. freezer for storage. Virus titer was determined by performing titration test in 96-well plates and calculate approximate virus titer using GFP event/well data.
Compound plates were prepared by dispensing compounds dissolved in DMSO into wells of 384 well coming 3985 polystyrene flat clear bottom optical imaging microplates (202.5 nL/well) using an ECHO acoustic dispenser. Each compound was tested in a 10-point serial 3-fold dilution (typical final concentrations: 40,300 nM-2 nM). […] Continuous culture of VERO cells were maintained in complete culture media (OptiMEM supplemented with 2 mM GlutaMAX™ and 100 U/ml Penicillin-Streptomycin). To set up the assay, trypsinize VERO cells with 0.25% Trypsin-EDTA until cells dislodge, then re-suspend cells with 1 mL FBS. Spin down cells at 300 g for 5 min and wash cells twice in culture media, then count cells using default parameters on ViCell. Cells were then diluted to 100,000 cells/ml (5,000 cells/50 μl) in complete culture media+TrypLE Select (80 μl/ml). Add hMPV-GFP virus to cells at 125,000 pfu/ml (MOI=1.25). Mix by gentle inversion. 10 μl/well of 100% DMSO was dispensed to CellTiter-Glo (CTG) assay Max_E controls wells. Dispense cells at 50 μl/well using Bravo and 50 μl filtered tips into compound plates. Cover plates with MicroClime lids loaded with 7.5 ml of assay media to minimize evaporation. Lightly shake plate for 10 minutes at room temperature then incubate at 37 degrees C. and 5% CO2 for 48 hrs. Following incubation, distinct, GFP-expressing cells are counted using an Acumen imaging system with appropriate settings. A same-well CTG assay is performed by adding 10 μl/well reconstituted CellTiter-Glo reagent (Promega G7573) and reading plates on PerkinElmer Envision according to manufacturer's instructions. Raw data were loaded and analyzed in ActivityBase. Antiviral IC50 and cytotoxicity CC50 values were determined using a 4 parameter logistic fit based on the Levenberg-Marquardt algorithm. Model: 205-4 Parameter Logistic.

For `CC(C)(N)c1cc(-c2ccc(F)cc2)nc(C(C)(O)CNC(=O)c2cc(-c3cscn3)ns2)c1` (single isomer, unassigned) [Example 09-B], the pEC50 [1] was greater than 8.00 and the pEC50 [2] was less than 7.00.

`Cn1nc(-c2ccon2)cc1C(=O)NCC(C)(O)c1cc(C(C)(C)N)cc(-c2ccc(F)cc2)n1` (single isomer, unassigned) [Example 03-B] gave a pEC50 [1] greater than 8.00 and a pEC50 [2] of less than 7.00.
